# Source: patent US11390617B2, “Methods of treating non-Hodgkin lymphoma using 2-(2,6-dioxopiperidin-3-yl)-4-((2-fluoro-4-((3-morpholinoazetidin-1-yl)methyl)benzyl)amino)isoindoline-1,3-dione” (Celgene Corporation, priority 2019, dated 2022)
# Key:
# Assay in all cases: NHL cell line viability/apoptosis 384-well flow cytometry assay
# Type in all cases: cell-based
# DB = settings: 120 hours
# Procedure: (§1) The following exemplary anti-proliferative assay uses exemplary non-Hodgkin lymphoma (NIL) cell lines (including diffuse large B-cell lymphoma (DLBCL), follicular lymphoma (FL), and mantle cell lymphoma (MCL)) (Table 5). The in vitro growth inhibitory activity of Compound 1 described herein was evaluated using a 384-well flow cytometry assay.
# (§2) The cell lines in Table 5 were plated in 384-well flat bottom plates and assessed with increasing concentrations of compound ranging from 0.00015 to 10 μM or dimethyl sulfoxide (DMSO) control. The final concentration of DMSO was 0.1% (v/v). Following the addition of Compound 1 or DMSO and incubation for 120 hours, cell number and cell death were analyzed by flow cytometry (Attune®, Thermo Fisher) using Annexin V and the live-cell impermeant DNA dye, DRAQ7. Phosphatidylserine translocates from the inner layer to the outer layer of the cell membrane early in apoptosis and Annexin V binds to the exposed phosphatidylserine found on the surface of an apoptotic cell. The vital dye DRAQ7 is excluded by intact live cells and only stains cells that have died as a result of apoptosis or necrosis.
# (§3) Flow cytometry data analysis was then performed using the Flow Jo_v10 software to determine the number of viable cells (Annexin V and DRAQ7 double negative staining cells) and percentage of apoptotic cells (Annexin V positive cells) for each condition. The live cell count for every concentration was normalized to the DMSO control (considered as 100%) to calculate the percentage of viable cells remaining after treatment and graphed using GraphPad Prism 7.03. The IC50 (50% inhibitory concentration) and Emax (maximum efficacy achieved) values were then calculated by performing nonlinear regression curve fitting using log(inhibitor) vs. normalized response—variable slope analysis on GraphPad Prism 7.03. Area under the curve (AUC) was calculated by performing area under curve analysis on GraphPad Prism 7.03. Similarly, for apoptosis analysis, the percentage of apoptosis combining both “early” (Annexin V positive and DRAQ7 negative) and “late” apoptosis (Annexin V and DRAQ7 positive) cell gates relative to DMSO was graphed using GraphPad Prism 7.03. The AUC, EC50 (concentration of Compound 1 that produces half-maximal apoptosis response) and Ymax (maximal percentage of apoptosis achieved) values from apoptosis curves were calculated by performing area under curve analysis and nonlinear regression curve fitting using log(agonist) vs. normalized response—Variable slope analysis on GraphPad Prism 7.03.
# (§4) In Table 6, dose-response proliferation curves for the panel of NHL cell lines and non-linear curve-fit regression were used to determine IC50, AUC, and Emax for % viable cells (Emax for viability varies between 100 at low doses and 0 at high doses, which corresponds to inhibition of all viable cells), and dose-response apoptosis curves were used to determine the EC50, AUC, and Ymax for % apoptosis (Ymax for apoptosis varies from 0 at low doses and 100 at higher doses which corresponds to death of all cells). Tumor cells were exposed to serial dilutions (0.00015 to 10 μM) of Compound 1 or dimethyl sulfoxide (DMSO) control for 5 days. Viability and apoptosis for all cell lines was determined by Annexin V/[…] flow cytometry.
# OCI-LY10 = OCI-LY10 (DLBCL), 120 hours
# Procedure: as §1, §2, §3, §4
# OCI-LY18 = OCI-LY18 (DLBCL), 120 hours
# Procedure: as §1, §2, §3, §4
# OCI-LY19 = OCI-LY19 (DLBCL), 120 hours
# Procedure: as §1, §2, §3, §4
# RL = RL (FL), 120 hours
# Procedure: as §1, §2, §3, §4
# SU-DHL-1 = SU-DHL-1 (DLBCL), 120 hours
# Procedure: as §1, §2, §3, §4
# SU-DHL-4 = SU-DHL-4 (DLBCL), 120 hours
# Procedure: as §1, §2, §3, §4
# SU-DHL-6 = SU-DHL-6 (DLBCL), 120 hours
# Procedure: as §1, §2, §3, §4
# SU-DHL-8 = SU-DHL-8 (DLBCL), 120 hours
# Procedure: as §1, §2, §3, §4
# Toledo = Toledo (DLBCL), 120 hours
# Procedure: as §1, §2, §3, §4
# U-2940 = U-2940 (DLBCL), 120 hours
# Procedure: as §1, §2, §3, §4
# WSU-DLCL = WSU-DLCL (DLBCL), 120 hours
# Procedure: as §1, §2, §3, §4
# [1] = Homo sapiens, read-out: IC50 (% Viable Cells)
smiles,measurement,setting,value
"O=C1CC[C@H](N2C(=O)c3cccc(NCc4ccc(CN5CC(N6CCOCC6)C5)cc4F)c3C2=O)C(=O)N1 [Compound 1, (S)-2-(2,6-dioxopiperidin-3-yl)-4-((2-fluoro-4-((3-morpholinoazetidin-1-yl)methyl)benzyl)amino)isoindoline-1,3-dione]",AUC (% Viable Cells),DB,941.4
same,AUC (Apoptosis),DB,80.31
same,Emax (% Viable Cells),DB,89.46%
same,Ymax (Apoptosis),DB,11.62%
same,EC50,DB; Homo sapiens,68.8 nM
same,IC50,DB; [1],10000 nM
same,EC50,OCI-LY10; Homo sapiens,320 nM
same,IC50,OCI-LY10; [1],14.2 nM
same,AUC (% Viable Cells),OCI-LY10,125.3
same,AUC (Apoptosis),OCI-LY10,188.9
same,Emax (% Viable Cells),OCI-LY10,10.16%
same,Ymax (Apoptosis),OCI-LY10,22.31%
same,EC50,OCI-LY18; Homo sapiens,2.98 nM
same,IC50,OCI-LY18; [1],0.944 nM
same,AUC (% Viable Cells),OCI-LY18,1.965
same,AUC (Apoptosis),OCI-LY18,965.2
same,Emax (% Viable Cells),OCI-LY18,0.05973%
same,Ymax (Apoptosis),OCI-LY18,97.44%
same,EC50,OCI-LY19; Homo sapiens,283 nM
same,IC50,OCI-LY19; [1],29.4 nM
same,AUC (% Viable Cells),OCI-LY19,72.49
same,AUC (Apoptosis),OCI-LY19,706.2
same,Emax (% Viable Cells),OCI-LY19,3.228%
same,Ymax (Apoptosis),OCI-LY19,80.91%
same,EC50,RL; Homo sapiens,157 nM
same,IC50,RL; [1],8.76 nM
same,AUC (% Viable Cells),RL,234.8
same,AUC (Apoptosis),RL,115.9
same,Emax (% Viable Cells),RL,21.55%
same,Ymax (Apoptosis),RL,13.93%
same,EC50,SU-DHL-1; Homo sapiens,1.1 nM
same,IC50,SU-DHL-1; [1],0.549 nM
same,AUC (% Viable Cells),SU-DHL-1,31.14
same,AUC (Apoptosis),SU-DHL-1,690.1
same,Emax (% Viable Cells),SU-DHL-1,2.485%
same,Ymax (Apoptosis),SU-DHL-1,73.83%
same,EC50,SU-DHL-4; Homo sapiens,782 nM
same,IC50,SU-DHL-4; [1],278 nM
same,AUC (% Viable Cells),SU-DHL-4,296.2
same,AUC (Apoptosis),SU-DHL-4,209
same,Emax (% Viable Cells),SU-DHL-4,23.44%
same,Ymax (Apoptosis),SU-DHL-4,25.33%
same,EC50,SU-DHL-6; Homo sapiens,104 nM
same,IC50,SU-DHL-6; [1],32.5 nM
same,AUC (% Viable Cells),SU-DHL-6,19.94
same,AUC (Apoptosis),SU-DHL-6,920.7
same,Emax (% Viable Cells),SU-DHL-6,0.2469%
same,Ymax (Apoptosis),SU-DHL-6,95.92%
same,EC50,SU-DHL-8; Homo sapiens,602 nM
same,IC50,SU-DHL-8; [1],486 nM
same,AUC (% Viable Cells),SU-DHL-8,119.5
same,AUC (Apoptosis),SU-DHL-8,363.2
same,Emax (% Viable Cells),SU-DHL-8,2.081%
same,Ymax (Apoptosis),SU-DHL-8,85.44%
same,EC50,Toledo; Homo sapiens,223 nM
same,IC50,Toledo; [1],2 nM
same,AUC (% Viable Cells),Toledo,112.3
same,AUC (Apoptosis),Toledo,231.4
same,Emax (% Viable Cells),Toledo,8.56%
same,Ymax (Apoptosis),Toledo,27.5%
same,EC50,U-2940; Homo sapiens,31.4 nM
same,IC50,U-2940; [1],6.31 nM
same,AUC (% Viable Cells),U-2940,70.43
same,AUC (Apoptosis),U-2940,792.5
same,Emax (% Viable Cells),U-2940,5.192%
same,Ymax (Apoptosis),U-2940,82.19%
same,AUC (% Viable Cells),WSU-DLCL,341.9
same,AUC (Apoptosis),WSU-DLCL,565.1
same,EC50,WSU-DLCL,18 nM
same,Emax (% Viable Cells),WSU-DLCL,27.83%
same,Ymax (Apoptosis),WSU-DLCL,59.91%
same,IC50,WSU-DLCL; read-out: IC50 (% Viable Cells),142 nM
